Assay results reported in ChEMBL document CHEMBL3414526, “Selective, nontoxic CB(2) cannabinoid o-quinone with in vivo activity against triple-negative breast cancer” (J Med Chem, 2015).
Active and inactive are the calls of the source. The calls are words filed in the database; no cut-off is given here.

Assays:
[1] = test system: MDA-MB-231; test: Antiproliferative activity against human MDA-MB-231 cells at IC50 after 48 hrs by MTT assay in presence of alpha-tocopherol; type: functional, cell-based
[2] = Antiproliferative activity against human SUM149 cells after 48 hrs by MTT assay; type: functional, cell-based; conditions: SUM149PT
[3] = test system: MDA-MB-231; test: Induction of apoptosis in human MDA-MB-231 cells assessed as increase in active caspase-3 level at IC50 after 48 hrs by Western blotting analysis; type: functional, cell-based
[4] = test system: MDA-MB-231; test: Antiproliferative activity against human MDA-MB-231 cells at IC50 after 48 hrs by MTT assay in presence of SR144528; type: functional, cell-based
[5] = test system: MDA-MB-468; test: Antiproliferative activity against human MDA-MB-468 cells after 48 hrs by MTT assay; type: functional, cell-based; conditions: MDA-MB-468, 48 h
[6] = test system: MDA-MB-231; test: Antiproliferative activity against human MDA-MB-231 cells at IC50 after 48 hrs by MTT assay in presence of CDI16020046; type: functional, cell-based
[7] = Antiproliferative activity against human SUM159 cells after 48 hrs by MTT assay; type: functional, cell-based; conditions: SUM-159-PT
[8] = test system: Mus musculus; test: Toxicity in nude mouse xenografted with human MDA-MB-231 cells assessed as toxicity in liver at 2 mg/kg, ip administered 3 times a week for 4 weeks; type: organism-based; design: dose 2 mg/kg, route intraperitoneal; conditions: in vivo, 672 h
[9] = test system: Mus musculus; test: Toxicity in nude mouse xenografted with human MDA-MB-231 cells assessed as toxicity in heart at 2 mg/kg, ip administered 3 times a week for 4 weeks; type: organism-based; design: dose 2 mg/kg, route intraperitoneal; conditions: in vivo, 672 h
[10] = test system: MDA-MB-231; test: Antiproliferative activity against human MDA-MB-231 cells at IC50 after 48 hrs by MTT assay in presence of SR141716; type: functional, cell-based
[11] = test system: Mus musculus; test: Toxicity in nude mouse xenografted with human MDA-MB-231 cells assessed as toxicity in lungs at 2 mg/kg, ip administered 3 times a week for 4 weeks; type: organism-based; design: dose 2 mg/kg, route intraperitoneal; conditions: in vivo, 672 h
[12] = test system: Mus musculus; test: Toxicity in nude mouse xenografted with human MDA-MB-231 cells assessed as toxicity in spleen at 2 mg/kg, ip administered 3 times a week for 4 weeks; type: organism-based; design: dose 2 mg/kg, route intraperitoneal; conditions: in vivo, 672 h
[13] = target: Cannabinoid receptor 1 (Homo sapiens, UniProt P21554); test: Displacement of [3H]CP55940 from human CB1 receptor transfected in HEK293 cells after 90 mins by liquid scintillation spectrophotometry; type: cell-based
Cannabinoid receptor 1, sequence (P21554 whole entry): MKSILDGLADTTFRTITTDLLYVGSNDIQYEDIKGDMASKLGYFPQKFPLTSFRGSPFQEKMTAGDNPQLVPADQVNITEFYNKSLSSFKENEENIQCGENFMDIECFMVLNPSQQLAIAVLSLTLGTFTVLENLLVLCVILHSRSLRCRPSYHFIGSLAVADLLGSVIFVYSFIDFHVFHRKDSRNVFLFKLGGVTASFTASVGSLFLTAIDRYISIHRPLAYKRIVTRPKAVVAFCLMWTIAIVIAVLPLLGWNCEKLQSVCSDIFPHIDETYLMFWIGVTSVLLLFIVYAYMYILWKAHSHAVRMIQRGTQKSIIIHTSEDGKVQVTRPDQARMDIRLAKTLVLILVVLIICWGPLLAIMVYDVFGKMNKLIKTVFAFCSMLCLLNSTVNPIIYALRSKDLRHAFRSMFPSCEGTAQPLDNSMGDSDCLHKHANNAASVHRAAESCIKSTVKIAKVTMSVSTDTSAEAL

[14] = test system: MDA-MB-231; test: Antitumor activity against human MDA-MB-231 cells xenografted in nude mouse assessed as reduction in tumor volume at 2 mg/kg, ip administered 3 times a week for 4 weeks relative to control; type: functional, organism-based; design: dose 2 mg/kg
[15] = test system: MDA-MB-231; test: Antitumor activity against human MDA-MB-231 cells xenografted in nude mouse assessed as reduction in tumor growth at 2 mg/kg, ip administered 3 times a week for 4 weeks relative to control; type: functional, organism-based; design: dose 2 mg/kg
[16] = target: Cannabinoid receptor 2 (Homo sapiens, UniProt P34972); test: Displacement of [3H]CP55940 from human CB2 receptor transfected in HEK293 cells after 90 mins by liquid scintillation spectrophotometry; type: cell-based
Cannabinoid receptor 2, sequence (P34972 whole entry): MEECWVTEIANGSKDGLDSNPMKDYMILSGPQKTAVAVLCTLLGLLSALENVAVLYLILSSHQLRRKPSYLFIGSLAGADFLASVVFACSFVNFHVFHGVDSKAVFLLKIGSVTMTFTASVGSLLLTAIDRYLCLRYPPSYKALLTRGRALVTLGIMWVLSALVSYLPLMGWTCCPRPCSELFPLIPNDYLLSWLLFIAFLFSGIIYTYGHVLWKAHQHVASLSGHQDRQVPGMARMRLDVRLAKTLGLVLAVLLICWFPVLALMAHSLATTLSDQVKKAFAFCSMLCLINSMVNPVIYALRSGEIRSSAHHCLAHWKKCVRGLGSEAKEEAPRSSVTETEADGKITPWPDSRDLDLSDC

[17] = test system: MDA-MB-231; test: Antiproliferative activity against human MDA-MB-231 cells after 48 hrs by MTT assay; type: functional, cell-based; conditions: MDA-MB-231, 48 h
[18] = test system: HMEC; test: Antiproliferative activity against HMEC at 2 to 30 uM after 48 hrs by MTT assay; type: cell-based; conditions: human
[19] = test system: MDA-MB-231; test: Antitumor activity against human MDA-MB-231 cells xenografted in nude mouse assessed as reduction in tumor weight at 2 mg/kg, ip administered 3 times a week for 4 weeks relative to control; type: functional, organism-based; design: dose 2 mg/kg
[20] = test system: MDA-MB-231; test: Antiproliferative activity against human MDA-MB-231 cells after 72 hrs by MTT assay; type: functional, cell-based; conditions: MDA-MB-231, 72 h

Q: Which results are given for `CCCCCCC(C)(C)C1=CC2=C(C(=O)C1=O)c1c(cnn1CC)C(C)(C)O2`?
A: Activity [1]: inactive; IC50 [2]: 4.6 µM; Activity [3]: Active; Activity [4]: inactive; IC50 [5]: 17.3 µM; Activity [6]: Active; IC50 [7]: 4.1 µM; Activity [8]: Non-toxic; Activity [9]: Non-toxic; Activity [10]: Active; Activity [11]: Non-toxic; Activity [12]: Non-toxic; Ki [13]: > 40 µM; Activity [14]: Active; Activity [15]: Active; Ki [16]: 0.529 µM; IC50 [17]: 2.8 µM; Activity [18]: Non-toxic; Activity [19]: Active

Q: Which Ki [13] does the source give for `CCCCCCC(C)(C)C1=CC2=C(C(=O)C1=O)c1[nH]ncc1C(C)(C)O2` here?
A: > 40 µM

Q: What about the Ki [16] of the same compound?
A: 0.398 µM

Q: What about the IC50 [17] of the same compound?
A: 8.5 µM

Q: With `CCCCCCC(C)(C)C1=CC2=C(C(=O)C1=O)c1nn(C)cc1C(C)(C)O2` as the compound, how does the Ki [13] read?
A: > 40 µM

Q: And the Ki [16]?
A: 0.597 µM

Q: And the IC50 [17]?
A: 5 µM

Q: Which IC50 [20] does the source give for `CCCCCc1cc(O)c2c(c1)OC(C)(C)[C@@H]1CCC(C)=C[C@@H]21` [DRONABINOL] here?
A: 5 µM

Q: For `CCCCCCC(C)(C)C1=CC(=O)C2=C(OC(C)(C)c3cn(C)nc32)C1=O`, which IC50 [17] is on record?
A: 5.8 µM

Q: Which IC50 [17] does the source give for `CCCCCCC(C)(C)C1=CC(=O)C2=C(OC(C)(C)c3c[nH]nc32)C1=O` here?
A: 8.2 µM

Q: For `CCCCCCC(C)(C)C1=CC(=O)C2=C(OC(C)(C)c3cn(CC)nc32)C1=O`, which IC50 [17] is on record?
A: 2.5 µM
